Assay results from ChEMBL document CHEMBL4000214, “Lycopene pretreatment improves hepatotoxicity induced by acetaminophen in C57BL/6 mice” (2017).
Calls of active or inactive are those of the source. The rule behind the calls is not given here.

Legend:
Mus musculus [1] = assay: Hepatoprotective activity against APAP overdose-induced liver injury in C57BL/6 mouse assessed as serum ALT level at 10 mg/kg, po pretreated via gavage for 14 consecutive days followed by APAP treatment 1 hr post last dose on day 14 measured 12 hrs post APAP treatment by spectrophotometric method (reference value: 166 +/- 1.7 IU); format: functional
Mus musculus [2] = assay: Hepatoprotective activity against APAP overdose-induced liver injury in C57BL/6 mouse assessed as serum ALT level at 100 mg/kg, po pretreated via gavage for 14 consecutive days followed by APAP treatment 1 hr post last dose on day 14 measured 12 hrs post APAP treatment by spectrophotometric method (reference value: 166 +/- 1.7 IU); format: functional
Mus musculus [3] = assay: Hepatoprotective activity against APAP overdose-induced liver injury in C57BL/6 mouse assessed as serum AST level at 10 mg/kg, po pretreated via gavage for 14 consecutive days followed by APAP treatment 1 hr post last dose on day 14 measured 12 hrs post APAP treatment by spectrophotometric method (reference value: 143.8 +/- 2.5 IU); format: functional
Mus musculus [4] = assay: Hepatoprotective activity against APAP overdose-induced liver injury in C57BL/6 mouse assessed as serum AST level at 100 mg/kg, po pretreated via gavage for 14 consecutive days followed by APAP treatment 1 hr post last dose on day 14 measured 12 hrs post APAP treatment by spectrophotometric method (reference value: 143.8 +/- 2.5 IU); format: functional
Mus musculus [5] = assay: Hepatoprotective activity against APAP overdose-induced liver injury in C57BL/6 mouse assessed as total cholesterol level in serum at 10 mg/kg, po pretreated via gavage for 14 consecutive days followed by APAP treatment 1 hr post last dose on day 14 measured 12 hrs post APAP treatment by spectrophotometric method (reference value: 42.2 +/- 3.5 mg/dl); format: functional
Mus musculus [6] = assay: Hepatoprotective activity against APAP overdose-induced liver injury in C57BL/6 mouse assessed as total cholesterol level in serum at 100 mg/kg, po pretreated via gavage for 14 consecutive days followed by APAP treatment 1 hr post last dose on day 14 measured 12 hrs post APAP treatment by spectrophotometric method (reference value: 42.2 +/- 3.5 mg/dl); format: functional
Mus musculus [7] = assay: Hepatoprotective activity against APAP overdose-induced liver injury in C57BL/6 mouse assessed as HDL level in serum at 10 mg/kg, po pretreated via gavage for 14 consecutive days followed by APAP treatment 1 hr post last dose on day 14 measured 12 hrs post APAP treatment by spectrophotometric method (reference value: 10.8 +/- 0.6 mg/dl); format: functional
Mus musculus [8] = assay: Hepatoprotective activity against APAP overdose-induced liver injury in C57BL/6 mouse assessed as HDL level in serum at 100 mg/kg, po pretreated via gavage for 14 consecutive days followed by APAP treatment 1 hr post last dose on day 14 measured 12 hrs post APAP treatment by spectrophotometric method (reference value: 10.8 +/- 0.6 mg/dl); format: functional
Mus musculus [9] = assay: Hepatoprotective activity against APAP overdose-induced liver injury in C57BL/6 mouse assessed as atherogenic fraction in serum at 10 mg/kg, po pretreated via gavage for 14 consecutive days followed by APAP treatment 1 hr post last dose on day 14 measured 12 hrs post APAP treatment by spectrophotometric method (reference value: 28.8 +/- 2.6 mg/dl); format: functional
Mus musculus [10] = assay: Hepatoprotective activity against APAP overdose-induced liver injury in C57BL/6 mouse assessed as atherogenic fraction in serum at 100 mg/kg, po pretreated via gavage for 14 consecutive days followed by APAP treatment 1 hr post last dose on day 14 measured 12 hrs post APAP treatment by spectrophotometric method (reference value: 28.8 +/- 2.6 mg/dl); format: functional
Mus musculus [11] = assay: Hepatoprotective activity against APAP overdose-induced oxidative damage in C57BL/6 mouse assessed as decrease in lipid peroxidation in liver at 10 to 100 mg/kg, po pretreated via gavage for 14 consecutive days followed by APAP treatment 1 hr post last dose on day 14 measured 12 hrs post APAP treatment by TBARS assay; format: functional, organism-based
Mus musculus [12] = assay: Hepatoprotective activity against APAP overdose-induced oxidative damage in po dosed C57BL/6 mouse assessed as decrease in carbonylated protein content in liver pretreated via gavage for 14 consecutive days followed by APAP treatment 1 hr post last dose on day 14 measured 12 hrs post APAP treatment by spectrophotometric method; format: functional, organism-based
Mus musculus [13] = assay: Hepatoprotective activity against APAP overdose-induced oxidative damage in C57BL/6 mouse assessed as restoration of APAP-induced loss in SOD activity in liver by measuring SOD ability to dismutase superoxide anion at 10 to 100 mg/kg, po pretreated via gavage for 14 consecutive days followed by APAP treatment 1 hr post last dose on day 14 measured 12 hrs post APAP treatment by spectrophotometric method; format: functional, organism-based
Mus musculus [14] = assay: Hepatoprotective activity against APAP overdose-induced oxidative damage in C57BL/6 mouse assessed as restoration of APAP-induced loss in catalase activity in liver by measuring decrease in hydrogen peroxide level at 10 to 100 mg/kg, po pretreated via gavage for 14 consecutive days followed by APAP treatment 1 hr post last dose on day 14 measured 12 hrs post APAP treatment by spectrophotometric method; format: functional, organism-based
Mus musculus [15] = assay: Hepatoprotective activity against APAP overdose-induced oxidative damage in C57BL/6 mouse assessed as increase in GSH level in liver at 10 to 100 mg/kg, po pretreated via gavage for 14 consecutive days followed by APAP treatment 1 hr post last dose on day 14 measured 12 hrs post APAP treatment by DTNB reagent based assay; format: functional, organism-based
Mus musculus [16] = assay: Hepatoprotective activity against APAP overdose-induced oxidative damage in C57BL/6 mouse assessed as decrease in GSSG level in liver at 10 mg/kg, po pretreated via gavage for 14 consecutive days followed by APAP treatment 1 hr post last dose on day 14 measured 12 hrs post APAP treatment; format: functional, organism-based
Mus musculus [17] = assay: Hepatoprotective activity against APAP overdose-induced oxidative damage in C57BL/6 mouse assessed as decrease in GSSG level in liver at 100 mg/kg, po pretreated via gavage for 14 consecutive days followed by APAP treatment 1 hr post last dose on day 14 measured 12 hrs post APAP treatment; format: functional, organism-based
Mus musculus [18] = assay: Hepatoprotective activity against APAP overdose-induced oxidative damage in C57BL/6 mouse assessed as inhibition of APAP-induced decrease in total GSH level in liver at 10 to 100 mg/kg, po pretreated via gavage for 14 consecutive days followed by APAP treatment 1 hr post last dose on day 14 measured 12 hrs post APAP treatment by DTNB reagent based assay; format: functional, organism-based
Mus musculus [19] = assay: Hepatoprotective activity against APAP overdose-induced liver damage in C57BL/6 mouse assessed as serum IL-1beta mRNA level at 10 mg/kg, po pretreated via gavage for 14 consecutive days followed by APAP treatment 1 hr post last dose on day 14 measured 12 hrs post APAP treatment by RT-PCR method (reference value: 1.67 +/- 0.4); format: functional
Mus musculus [20] = assay: Hepatoprotective activity against APAP overdose-induced liver damage in C57BL/6 mouse assessed as serum IL-6 mRNA level at 10 mg/kg, po pretreated via gavage for 14 consecutive days followed by APAP treatment 1 hr post last dose on day 14 measured 12 hrs post APAP treatment by RT-PCR method (reference value: 0.32 +/- 0.2); format: functional
Mus musculus [21] = assay: Hepatoprotective activity against APAP overdose-induced liver damage in C57BL/6 mouse assessed as serum IL-10 mRNA level at 10 mg/kg, po pretreated via gavage for 14 consecutive days followed by APAP treatment 1 hr post last dose on day 14 measured 12 hrs post APAP treatment by RT-PCR method (reference value: 0.45 +/- 0.2); format: functional
Mus musculus [22] = assay: Hepatoprotective activity against APAP overdose-induced liver damage in C57BL/6 mouse assessed as serum IL-1beta mRNA level at 100 mg/kg, po pretreated via gavage for 14 consecutive days followed by APAP treatment 1 hr post last dose on day 14 measured 12 hrs post APAP treatment by RT-PCR method (reference value: 1.67 +/- 0.4); format: functional
Mus musculus [23] = assay: Hepatoprotective activity against APAP overdose-induced liver damage in C57BL/6 mouse assessed as serum IL-6 mRNA level at 100 mg/kg, po pretreated via gavage for 14 consecutive days followed by APAP treatment 1 hr post last dose on day 14 measured 12 hrs post APAP treatment by RT-PCR method (reference value: 0.32 +/- 0.2); format: functional
Mus musculus [24] = assay: Hepatoprotective activity against APAP overdose-induced liver damage in C57BL/6 mouse assessed as serum IL-10 mRNA level at 100 mg/kg, po pretreated via gavage for 14 consecutive days followed by APAP treatment 1 hr post last dose on day 14 measured 12 hrs post APAP treatment by RT-PCR method (reference value: 0.45 +/- 0.2); format: functional
Mus musculus [25] = assay: Hepatoprotective activity against APAP overdose-induced liver damage in C57BL/6 mouse assessed as decrease in APAP-induced MMP2 activity in liver at 10 to 100 mg/kg, po pretreated via gavage for 14 consecutive days followed by APAP treatment 1 hr post last dose on day 14 measured 12 hrs post APAP treatment by coomassie brilliant blue staining based gelatin zymography assay; format: functional, organism-based
Mus musculus [26] = assay: Hepatoprotective activity against APAP overdose-induced liver damage in C57BL/6 mouse assessed as decrease in liver necrotic area at 10 mg/kg, po pretreated via gavage for 14 consecutive days followed by APAP treatment 1 hr post last dose on day 14 measured 12 hrs post APAP treatment by hematoxylin and eosin staining based assay; format: functional, organism-based
Mus musculus [27] = assay: Hepatoprotective activity against APAP overdose-induced liver damage in C57BL/6 mouse assessed as decrease in liver necrotic area at 100 mg/kg, po pretreated via gavage for 14 consecutive days followed by APAP treatment 1 hr post last dose on day 14 measured 12 hrs post APAP treatment by hematoxylin and eosin staining based assay; format: functional, organism-based

CC(C)=CCC/C(C)=C/C=C/C(C)=C/C=C/C(C)=C/C=C/C=C(C)/C=C/C=C(C)/C=C/C=C(\C)CCC=C(C)C [LYCOPENE]
Activity (Mus musculus [1]): 161.7 IU | Activity (Mus musculus [2]): 164.1 IU | Activity (Mus musculus [3]): 139.6 IU | Activity (Mus musculus [4]): 139.8 IU | Activity (Mus musculus [5]): 41 mg/dL | Activity (Mus musculus [6]): 58.2 mg/dL | Activity (Mus musculus [7]): 9 mg/dL | Activity (Mus musculus [8]): 17 mg/dL | Activity (Mus musculus [9]): 30 mg/dL | Activity (Mus musculus [10]): 41.1 mg/dL | Activity (Mus musculus [11]): Active | Activity (Mus musculus [12]): Dose-dependent effect | Activity (Mus musculus [13]): inactive | Activity (Mus musculus [14]): Active | Activity (Mus musculus [15]): Active | Activity (Mus musculus [16]): inactive | Activity (Mus musculus [17]): Active | Activity (Mus musculus [18]): Active | Activity (Mus musculus [19]): 0.68 | Activity (Mus musculus [20]): 0.37 | Activity (Mus musculus [21]): 0.57 | Activity (Mus musculus [22]): 0.58 | Activity (Mus musculus [23]): 0.4 | Activity (Mus musculus [24]): 0.3 | Activity (Mus musculus [25]): Active | Activity (Mus musculus [26]): inactive | Activity (Mus musculus [27]): Active
